Patent US10220033B2, “Substituted benzoxazepine for cancer therapy” (University of Cape Town, priority 2014, dated 2019)
“Also recorded” adds a separate entry of the source. Where two headings read alike, the source gives them in different places.

Columns and labels:
[1] = tested on: non-cancer fibroblast cells; assay: MTT cell viability, summary statement for non-cancer cells; assay type: cell-based
Procedure: (§1) Cells were plated in 96-well plates and treated with varying concentrations of a test compound for 48 hours, after which MTT dye, 3-(4,5-dimethylthiazol-2-yl)-2,5-diphenyltetrazolium bromide (Sigma), was added, and crystals solubilised 4 hours later using Solubilisation Reagent (10% SLS in 0.01 M HCl). Absorbencies were measured at 595 nm the following day using a BioTek microplate spectrophotometer (Winooski, Vt., USA) and IC50 curves were generated using GraphPad Prism.

Cytochrome C release = assay: Mitochondrial and cytoplasmic protein extraction, Cytochrome C Western Blot; assay type: cell-based; details: varying concentrations, 24 hours (FIG. 27)
Procedure: Cells were grown in 10 cm plates and treated with varying concentrations of Compound A for 24 hours. Cells were lysed in subcellular fractionation buffer (250 mM sucrose, 20 mM HEPES, 10 mM KCl, 1.5 mM MgCl2, 1 mM EDTA, 1 mM EGTA, 1 mM DTT and 1× complete protease inhibitor cocktail (Roche)), passed through a 25G needle and incubated on ice for 20 minutes. The nuclear pellet was obtained after centrifugation at 720 g for 5 minutes. The supernantant was further centrifuged at 10,000 g and the resulting supernatant used as the cytoplasmic fraction. The pellet containing the mitochondrial fraction was washed in subcellular fractionation buffer and passed through a 25G needle. The mitochondrial fraction was pelleted at 10,000 g and resuspended in RIPA buffer. Western Blot analysis was performed using a mouse anti-Cytochrome C antibody (BD Pharmingen, San Diego, Calif.), and anti-β-tubulin (H235) (sc-9104, Santa Cruz) and anti-Pereroxiredoxin-3 (PRDX-3) (P1247, Sigma) antibodies were used as protein loading controls for cytoplasmic and mitochondrial fractions, respectively.

[2] = tested on: p65 nuclear import (Kpnβ1 cargo protein); assay: Percentage of nuclear and cytoplasmic p65 (FIG. 4); assay type: cell-based
[3] = tested on: WHCO1 oesophageal carcinoma cell line; assay: MTT assay for cell viability, IC50 determination; assay type: cell-based; details: Homo sapiens, 48 hours
Procedure: as §1

[4] = tested on: WI38 non-cancer cell line; assay: MTT assay for cell viability, IC50 determination; assay type: cell-based; details: Homo sapiens, WI-38; WI38 non-cancer; 48 hours, MTT
Procedure: as §1

[5] = tested on: KYSE180 oesophageal cancer cell line; assay: MTT assay for cell viability, IC50 determination; assay type: cell-based; details: Homo sapiens, KYSE-180, 48 hours
Procedure: as §1

[6] = tested on: MCF7 breast cancer cell line; assay: MTT assay for cell viability, IC50 determination; assay type: cell-based; details: Homo sapiens, 48 hours, MTT
Procedure: as §1

[7] = tested on: FG0 normal skin fibroblasts (non-cancer); assay: MTT assay for cell viability, IC50 determination; assay type: cell-based; details: Skin fibroblast, 48 hours
Procedure: as §1

[8] = tested on: CaSki cervical cancer cell line; assay: MTT assay for cell viability, IC50 determination; assay type: cell-based; details: MTT, read-out: IC50
Procedure: as §1

[9] = tested on: DMB normal skin fibroblasts (non-cancer); assay: MTT assay for cell viability, IC50 determination; assay type: cell-based; details: Skin fibroblast; DMB non-cancer; 48 hours, MTT
Procedure: as §1

[10] = tested on: SVWI38 transformed cell line; assay: MTT assay for cell viability, IC50 determination; assay type: cell-based; details: SVWI38 transformed; 48 hours, MTT
Procedure: as §1

[11] = tested on: A2780 ovarian cancer cell line; assay: MTT assay for cell viability, IC50 determination; assay type: cell-based; details: Homo sapiens, 48 hours
Procedure: as §1

[12] = tested on: MDA-MB-231 breast cancer cell line; assay: MTT assay for cell viability, IC50 determination; assay type: cell-based; details: Homo sapiens, 48 hours, MTT
Procedure: as §1

[13] = tested on: OVCAR3 ovarian cancer cell line; assay: MTT assay for cell viability, IC50 determination; assay type: cell-based; details: Homo sapiens, OVCAR-3, 48 hours
Procedure: as §1

[14] = MTT assay for cell viability, IC50 determination; assay type: cell-based; details: Homo sapiens, MCF-12A; MCF12A; 48 hours, MTT
Procedure: as §1

[15] = tested on: WHCO6 oesophageal carcinoma cell line; assay: MTT assay for cell viability, IC50 determination; assay type: cell-based; details: Homo sapiens, 48 hours
Procedure: as §1

[16] = tested on: HeLa cervical cancer cell line; assay: MTT assay for cell viability, IC50 determination; assay type: cell-based; details: HeLa, 48 hours, MTT, read-out: IC50
Procedure: as §1

[17] = tested on: CP70 ovarian cancer cell line; assay: MTT assay for cell viability, IC50 determination; assay type: cell-based; details: 48 hours
Procedure: as §1

[18] = tested on: KYSE150 oesophageal cancer cell line; assay: MTT assay for cell viability, IC50 determination; assay type: cell-based; details: Homo sapiens, KYSE-150; KYSE150; 48 hours, MTT
Procedure: as §1

[19] = tested on: KYSE30 oesophageal cancer cell line; assay: MTT assay for cell viability, IC50 determination; assay type: cell-based; details: Homo sapiens, KYSE-30, 48 hours
Procedure: as §1

[20] = tested on: WHCO5 oesophageal cancer cell line; assay: MTT assay for cell viability, IC50 determination; assay type: cell-based, human; details: MTT
Procedure: as §1

HeLa and KYSE30 cells = assay: Anchorage-independent colony formation; assay type: cell-based; details: 10 μM; polyheme-coated plates, 9 days (FIG. 23)
Procedure: The anchorage-independent proliferation of cancer cells was measured in response to Compound A treatment, as cells grown in this manner are more representative of tumour cells in vivo. Cells were grown on polyheme-coated plates and cell proliferation monitored 9 days after treatment, using MTT assays.

[21] = Body mass of tumour-bearing mice during treatment; assay type: in vivo; details: WHCO6 tumour-bearing mice; 50 mg/kg i.p. over the course of the treatment (FIG. 29)
Procedure: WHCO6 cells were harvested and resuspended in PBS. For tumour inoculation, cancer cells (5×10^6 per mouse) were s.c. implanted into the hind flanks of female nude mice. Once tumours had reached a palpable size, drug treatment was initiated, where tumour-bearing mice were randomized and dosed i.p. with either vehicle (DMSO) or Compound A (50 mg/kg), every 2-3 days for 3 weeks. Tumour volumes were measured twice a week, using calipers, and tumour volume estimated using the following formula: volume=(length×width×width)/2. Mice were sacrificed 3 weeks after the commencement of drug treatment.

[22] = tested on: PARP cleavage in CaSki cells; assay: PARP cleavage analysis by Western Blot; assay type: cell-based; details: IC50 and twice the IC50 (FIG. 5), varying concentrations 12 hours (FIG. 26)
Procedure: CaSki cells were treated with varying concentrations of Compound A for 12 hours, following which cells and cell floaters were harvested using RIPA buffer (10 mM Tris-Cl, pH 7.4, 150 mM NaCl, 1% sodium deoxycholate, 0.1% SDS, 1% Triton X-100, 1× complete protease inhibitor cocktail (Roche, Mannheim, Germany)) and Western Blot analysis performed, using a rabbit anti-Parp1/2 (H-250) antibody (sc-7150).

cancer cell lines = assay: MTT cell viability, summary statements over panels of cancer cell lines; assay type: cell-based; details: cervical, oesophageal, ovarian and breast cancer cell lines (Table 11); read-out: IC50
Procedure: as §1

In the case of `CN(C)CCCn1c(N)c(-c2nc3ccccc3[nH]2)c2nc3ccccc3nc21` [Compound A, 3-(1H-benzimidazol-2-yl)-1-(3-dimethylaminopropyl)pyrrolo[5,4-b]quinoxalin-2-amine], the IC50 [1] is reported as 20 to 30 µM, the “release of Cytochrome C from the mitochondria into the cytoplasm” value (Cytochrome C release) is reported as “release of Cytochrome C from the mitochondria into the cytoplasm, in a dose-dependent manner” and the “nuclear import of Kpnβ1 cargo protein (percentage of nuclear p65 relative to cytoplasmic p65)” value [2] is reported as “inhibit the nuclear import of Kpnβ1 cargo protein”. For the same molecule, the IC50 [3] was 10.6 µM, the IC50 [4] was 24 µM and the IC50 [5] was 15.8 µM. The IC50 [6] was 9.33 µM, the IC50 [7] was 21.4 µM and the IC50 ([8]; 48 hours) was 9.33 µM. It also gave an IC50 ([8]; Homo sapiens, Ca-Ski, 48 h) of 9.33 µM, an IC50 [9] of 31.4 µM and an IC50 [10] of 10.4 µM. It also gave an IC50 [11] of 5.79 µM, an IC50 [12] of 7.92 µM and an IC50 [13] of 10.5 µM. For the same molecule, the IC50 [14] was 12.7 µM, the IC50 [15] was 12 µM and the IC50 [16] was 8.77 µM. The IC50 ([16]; Homo sapiens, 48 h) was 10.2 µM, the IC50 [17] was 7.7 µM and the IC50 [18] was 11.7 µM. The IC50 [19] was 8.84 µM, the IC50 ([20]; 48 hours) was 9.09 µM and the IC50 ([20]; Homo sapiens, 48 h) was 9.09 µM. The anchorage-independent colony formation (HeLa and KYSE30 cells) was “unable to form colonies”, the “body mass of the mice” value [21] was “did not change” and the “PARP cleavage as an indicator of apoptosis” value [22] was “induce cancer cell death via apoptosis; also recorded: increase in the levels of the 89 kDa cleaved PARP”. The IC50 (cancer cell lines) was roughly 10 µM.
